Results from US9403850B2, “Beta-lactamase inhibitors” (priority 2013, dated 2016).

What was measured:
VIM-2 = target: T1, VIM-2 (Escherichia coli, UniProt Q5U7L7); test: β-Lactamase enzyme inhibition assay, VIM-2 (nitrocefin substrate); format: biochemical; conditions: nitrocefin substrate 100 μM, 15 min preincubation at 37° C.; read-out: IC50, Class B VIM-2
T1 construct: made in house; host or cells: E. coli BL21(DE3)
Protocol: For Vim-2 metallo β-lactamase, the procedure was identical with the following exceptions, first the protein was not pH adjusted to pH 5 with 50 mM sodium acetate, second, the chromatography step was changed to a 5 ml Q sepharose anion exchange column pre-equilibrated with 50 mM Hepes pH 7.5, and elution of the protein was achieved by a linear gradient of NaCl (0-600 mM). Finally, the VIM-2 purification required a second run (3rd step) on the Q sepharose anion exchange column to achieve acceptable purity (>90%).
An equal volume of diluted enzyme stock was added, and the plates were incubated at 37° C. for 15 min. Nitrocefin was used as substrate for p99 AmpC, VIM-2 and OXA-1 and dispensed into each well at a final concentration of 100 μM. Absorbance at 486 nm was immediately monitored for 10 min using a Biotek Powerwave XS2 microplate spectrophotometer using the GEN5 softweare package (Biotek Instruments, Winooski Vt.). In an analogous fashion, imipenem was used as substrate for Kpc-2 and Cefotaxime was used for SHV-5, while changes in absorbance upon hydrolysis of the β-lactam ring were monitored at 300 nm and 260 nm respectively in UV-transparent 96-well microtiter assay plates. Maximum rates of hydrolysis were compared to those in control wells (without inhibitors), and percentages of enzyme inhibition were calculated for each concentration of inhibitor. The concentration of inhibitor needed to reduce the initial rate of hydrolysis of substrate by 50% (IC50) was calculated as the residual activity of β-lactamase at 486 nm using GraFit version 7 kinetics software package (Erithacus Software, Surrey, UK).
Using the methodology described above, examples of the current invention were evaluated for their ability to inhibit β-lactamase enzymes from all four Ambler classifications (A through D). […] NT=Not tested.

[1] = test system: E. coli ESBL4 expressing CTX-M-15; test: Broth microdilution MIC assay, partner ceftazidime; format: cell-based; conditions: Escherichia coli, read-out: MIC of Exemplary Compounds in presence of fixed β-lactams, Fixed CAZ, E. coli ESBL4 CTX-M-15
[2] = test system: E. cloacae 144200 expressing Class C P99 AmpC; test: Broth microdilution MIC assay, partner ceftazidime; format: cell-based; conditions: for MIC: Enterobacter cloacae, read-out: MIC of Exemplary Compounds in presence of fixed β-lactams, Fixed CAZ, E. cl. 144200 p99 AmpC
[3] = test system: K. pneumoniae 156319 expressing KPC-3; test: Broth microdilution MIC assay, partner meropenem; format: cell-based; conditions: Klebsiella pneumoniae, read-out: MIC of Exemplary Compounds in presence of fixed β-lactams, Fixed Mero, K.P. 156319 KPC-3
[4] = test system: P. aeruginosa Ps296 expressing VIM-2; test: Broth microdilution MIC assay, partner meropenem; format: cell-based; conditions: Pseudomonas aeruginosa, read-out: MIC of Exemplary Compounds in presence of fixed β-lactams, Fixed Mero, P. aerug. Ps296 VIM-2
[5] = test system: K. pneumoniae A-1797 expressing KPC-2 and VIM-4; test: Broth microdilution MIC assay, partner meropenem; format: cell-based; conditions: Klebsiella pneumoniae, read-out: MIC of Exemplary Compounds in presence of fixed β-lactams, Fixed Mero, K.P. A-1797 KPC-2 VIM-4
[6] = test system: S. aureus MSSA-7 producing penicillinase PC-1; test: Broth microdilution MIC assay, partner piperacillin; format: cell-based; conditions: Staphylococcus aureus, fixed piperacillin 4 μg/mL, read-out: MIC of Exemplary Compounds in presence of fixed β-lactams, Fixed Pip, S. aureus MSSA-7 PC-1

| Compound | IC50 (VIM-2) [nM] | MIC [1] [µg/mL] | MIC [2] [µg/mL] | MIC [3] [µg/mL] | MIC [4] [µg/mL] | MIC [5] [µg/mL] | MIC [6] [µg/mL] | MIC of Exemplary Compounds in presence of fixed β-lactams, Fixed CAZ, E. cl. 144200 p99 AmpC ([2]; fixed ceftazidime 4 μg/mL) |
| --- | --- | --- | --- | --- | --- | --- | --- | --- |
| O=C(N[C@H]1Cc2cccc(C(=O)O)c2OB1O)c1cnc2[nH]ccc2c1 [Example 35, (R)-2-Hydroxy-3-[(1H-pyrrolo[2,3-b]pyridine-5-carbonyl)-amino]-3,4-dihydro-2H-benzo[e][1,2]oxaborinine-8-carboxylic acid] | 100 to 1000 | < 4 | < 4 | < 4 | < 4 | > 32 | < 4 | – |
| N=C(N)N1Cc2ccc(CC(=O)N[C@H]3Cc4cccc(C(=O)O)c4OB3O)cc2C1 [Example 37, (3R)-3-[[2-(2-carbamimidoylisoindolin-5-yl)acetyl]amino]-2-hydroxy-3,4-dihydro-1,2-benzoxaborinine-8-carboxylic acid] | 100 to 1000 | < 4 | < 4 | < 4 | < 4 | > 32 | < 4 | – |
| O=C(Cc1ccc(O)c(O)c1)N[C@H]1Cc2cccc(C(=O)O)c2OB1O [Example 38, (R)-3-(2-(3,4-dihydroxyphenyl)acetamido)-2-hydroxy-3,4-dihydro-2H-benzo[e][1,2]oxaborinine-8-carboxylic acid] | 100 to 1000 | < 4 | < 4 | < 4 | 8 to 32 | 8 to 32 | < 4 | – |
| O=C(N[C@H]1Cc2cccc(C(=O)O)c2OB1O)c1ccc(O)c(O)c1 [Example 39, (R)-3-(3,4-dihydroxybenzamido)-2-hydroxy-3,4-dihydro-2H-benzo[e][1,2]oxaborinine-8-carboxylic acid] | 100 to 1000 | < 4 | < 4 | < 4 | 8 to 32 | 8 to 32 | 8 to 32 | – |
| NCCOc1ccc(C(=O)N[C@H]2Cc3cccc(C(=O)O)c3OB2O)cc1O [Example 40, (R)-3-(4-(2-aminoethoxy)-3-hydroxybenzamido)-2-hydroxy-3,4-dihydro-2H-benzo[e][1,2]oxaborinine-8-carboxylic acid] | < 100 | < 4 | < 4 | < 4 | < 4 | < 4 | < 4 | – |
| NCCn1ccc2ccc(C(=O)N[C@H]3Cc4cccc(C(=O)O)c4OB3O)cc21 [Example 41, (R)-3-{[1-(2-Amino-ethyl)-1H-indole-6-carbonyl]-amino}-2-hydroxy-3,4-dihydro-2H-benzo[e][1,2]oxaborinine-8-carboxylic acid] | < 100 | < 4 | < 4 | > 32 | 8 to 32 | < 4 | < 4 | – |
| NCCn1ccc2c(C(=O)N[C@H]3Cc4cccc(C(=O)O)c4OB3O)cccc21 [Example 42, (R)-3-{[1-(2-Amino-ethyl)-1H-indole-4-carbonyl]-amino}-2-hydroxy-3,4-dihydro-2H-benzo[e][1,2]oxaborinine-8-carboxylic acid] | 100 to 1000 | < 4 | < 4 | > 32 | < 4 | 8 to 32 | < 4 | – |
| Cn1ccc2ccc(C(=O)N[C@H]3Cc4cccc(C(=O)O)c4OB3O)cc21 [Example 43, (R)-2-Hydroxy-3-[(1-methyl-1H-indole-6-carbonyl)-amino]-3,4-dihydro-2H-benzo[e][1,2]oxaborinine-8-carboxylic acid] | 100 to 1000 | < 4 | < 4 | > 32 | > 32 | > 32 | < 4 | – |
| NCc1cc(CN)cc(C(=O)N[C@H]2Cc3cccc(C(=O)O)c3OB2O)c1 [Example 44, (R)-3-(3,5-bis(aminomethyl)benzamido)-2-hydroxy-3,4-dihydro-2H-benzo[e][1,2]oxaborinine-8-carboxylic acid] | 1000 to 10000 | 8 to 32 | – | > 32 | > 32 | > 32 | > 32 | A (A represents an MIC of the fixed β-lactam antibiotic in the presence of >32 μg/mL of a β-lactamase inhibitor of exemplary compounds) |
| N=C(N)NCc1cc(CNC(=N)N)cc(C(=O)N[C@H]2Cc3cccc(C(=O)O)c3OB2O)c1 [Example 45, (R)-3-(3,5-bis(guanidinomethyl)benzamido)-2-hydroxy-3,4-dihydro-2H-benzo[e][1,2]oxaborinine-8-carboxylic acid] | < 100 | < 4 | < 4 | < 4 | < 4 | < 4 | > 32 | – |
| O=C(Cc1ccc2cc[nH]c2c1)N[C@H]1Cc2cccc(C(=O)O)c2OB1O [Example 46, (R)-2-Hydroxy-3-(2-1H-indol-6-yl-acetylamino)-3,4-dihydro-2H-benzo[e][1,2]oxaborinine-8-carboxylic acid] | < 100 | < 4 | < 4 | < 4 | < 4 | < 4 | 8 to 32 | – |
| O=C(N[C@H]1Cc2cccc(C(=O)O)c2OB1O)c1ccc(-c2ncc[nH]2)cc1 [Example 47, (R)-2-Hydroxy-3-[4-(1H-imidazol-2-yl)-benzoylamino]-3,4-dihydro-2H-benzo[e][1,2]oxaborinine-8-carboxylic acid] | 100 to 1000 | < 4 | < 4 | < 4 | 8 to 32 | > 32 | < 4 | – |
| CN1Cc2ccc(CC(=O)N[C@H]3Cc4cccc(C(=O)O)c4OB3O)cc2C1 [Example 48, (R)-2-Hydroxy-3-[2-(2-methyl-2,3-dihydro-1H-isoindol-5-yl)-acetylamino]-3,4-dihydro-2H-benzo[e][1,2]oxaborinine-8-carboxylic acid] | < 100 | < 4 | < 4 | < 4 | < 4 | < 4 | < 4 | – |
| NCCN1Cc2ccc(CC(=O)N[C@H]3Cc4cccc(C(=O)O)c4OB3O)cc2C1 [Example 49, (R)-3-{2-[2-(2-Amino-ethyl)-2,3-dihydro-1H-isoindol-5-yl]-acetylamino}-2-hydroxy-3,4-dihydro-2H-benzo[e][1,2]oxaborinine-8-carboxylic acid] | 100 to 1000 | < 4 | < 4 | < 4 | < 4 | > 32 | < 4 | – |
| O=C(N[C@H]1Cc2cccc(C(=O)O)c2OB1O)c1cnc2c(c1)CNC2 [Example 50, (3R)-3-(6,7-dihydro-5H-pyrrolo[3,4-b]pyridine-3-carbonylamino)-2-hydroxy-3,4-dihydro-1,2-benzoxaborinine-8-carboxylic acid] | 100 to 1000 | < 4 | < 4 | < 4 | < 4 | > 32 | < 4 | – |
| O=C(Cc1ccc2c(c1)CNCC2)N[C@H]1Cc2cccc(C(=O)O)c2OB1O [Example 51, (R)-2-Hydroxy-3-(2-1,2,3,4-tetrahydro-isoquinolin-7-yl-acetylamino)-3,4-dihydro-2H-benzo[e][1,2]oxaborinine-8-carboxylic acid] | < 100 | < 4 | < 4 | < 4 | < 4 | < 4 | < 4 | – |
| O=C(N[C@H]1Cc2cccc(C(=O)O)c2OB1O)c1cnco1 [Example 52, (R)-2-Hydroxy-3-[(oxazole-5-carbonyl)-amino]-3,4-dihydro-2H-benzo[e][1,2]oxaborinine-8-carboxylic acid] | 100 to 1000 | < 4 | < 4 | < 4 | 8 to 32 | > 32 | < 4 | – |
